Data published in patent US12655116B2, “Substituted isophthalic acid diamides” (Bayer Aktiengesellschaft, priority 2020, dated 2026).

Assays:
ABUTH [1] = assay: Pre-emergence herbicidal action against ABUTH; type: in vivo, Abutilon theophrasti
Method in brief: (§1)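 Greenhouse pots of sandy loam held seeds covered with soil, onto which the compound was applied before emergence. An aqueous suspension or emulsion of WP or EC was used at 600 to 800 l/ha with 0.2% wetting agent. Percent damage was judged visually at 3 weeks.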

ALOMY [2] = assay: Pre-emergence herbicidal action against ALOMY; type: in vivo, Alopecurus myosuroides; settings: pre-emergence
Method in brief: as §1

AMARE [3] = assay: Pre-emergence herbicidal action against AMARE; type: in vivo, Amaranthus retroflexus
Method in brief: as §1

ECHCG [4] = assay: Pre-emergence herbicidal action against ECHCG; type: in vivo, Echinochloa crus-galli; settings: 80 g/ha
Method in brief: as §1

LOLRI = assay: Pre-emergence herbicidal action against LOLRI; type: in vivo, Lolium rigidum; settings: 80 g/ha
Method in brief: as §1

MATIN [5] = assay: Pre-emergence herbicidal action against MATIN; type: in vivo, Matricaria inodora
Method in brief: as §1

PHBPU [6] = assay: Pre-emergence herbicidal action against PHBPU; type: in vivo, Pharbitis purpurea
Method in brief: as §1

SETVI [7] = assay: Pre-emergence herbicidal action against SETVI; type: in vivo, Setaria viridis
Method in brief: as §1

VERPE [8] = assay: Pre-emergence herbicidal action against VERPE; type: in vivo, Veronica persica
Method in brief: as §1

VIOTR [9] = assay: Pre-emergence herbicidal action against VIOTR; type: in vivo, Viola tricolor
Method in brief: as §1

ABUTH [10] = assay: Post-emergence herbicidal action against ABUTH; type: in vivo, Abutilon theophrasti; settings: visual assessment about 3 weeks after treatment vs untreated controls
Method in brief: (§2)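 Foliar application at one-leaf stage of formulated test compounds, aqueous spray at 600–800 l/ha with 0.2% wetting agent. Greenhouse, optimal conditions, ~3 weeks; damage scored visually in % relative to untreated plants.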

ALOMY [11] = assay: Post-emergence herbicidal action against ALOMY; type: in vivo, Alopecurus myosuroides; settings: visual assessment about 3 weeks after treatment vs untreated controls
Method in brief: as §2

AMARE [12] = assay: Post-emergence herbicidal action against AMARE; type: in vivo, Amaranthus retroflexus; settings: 20 g/ha, visual assessment about 3 weeks after treatment, 100% = plants have died, 0% = like control plants
Method in brief: as §2

AVEFA [13] = assay: Post-emergence herbicidal action against AVEFA; type: in vivo, Avena fatua; settings: 20 g/ha, visual assessment about 3 weeks after treatment, 100% = plants have died, 0% = like control plants
Method in brief: as §2

ECHCG [14] = assay: Post-emergence herbicidal action against ECHCG; type: in vivo, Echinochloa crus-galli
Method in brief: as §2

MATIN [15] = assay: Post-emergence herbicidal action against MATIN; type: in vivo, Matricaria inodora
Method in brief: as §2

PHBPU [16] = assay: Post-emergence herbicidal action against PHBPU; type: in vivo, Pharbitis purpurea
Method in brief: as §2

SETVI [17] = assay: Post-emergence herbicidal action against SETVI; type: in vivo, Setaria viridis
Method in brief: as §2

VERPE [18] = assay: Post-emergence herbicidal action against VERPE; type: in vivo, Veronica persica; settings: 20 g/ha
Method in brief: as §2

VIOTR [19] = assay: Post-emergence herbicidal action against VIOTR; type: in vivo, Viola tricolor; settings: 20 g/ha
Method in brief: as §2

AVEFA [20] = assay: Pre-emergence herbicidal action against AVEFA; type: in vivo, Avena fatua; settings: pre-emergence
Method in brief: as §1

DIGSA [21] = assay: Pre-emergence herbicidal action against DIGSA; type: in vivo, Digitaria sanguinalis
Method in brief: as §1

DIGSA [22] = assay: Post-emergence herbicidal action against DIGSA; type: in vivo, Digitaria sanguinalis; settings: 20 g/ha
Method in brief: as §2

[23] = 80 g/ha, scored visually after 3 weeks vs untreated controls (100% = plants have died, 0% = like control plants)
[24] = dosage 20 g/ha, scored visually after 3 weeks vs untreated controls, 100% = plants have died, 0% = like control plants
[25] = 20 g/ha, scored visually after 3 weeks vs untreated controls, 100% = plants have died, 0% = like control plants
[26] = Tripleurospermum inodorum, 504 h, dosage 20 g/ha
[27] = Ipomoea purpurea, 504 h, dosage 20 g/ha
[28] = Setaria viridis, 504 h, dosage 20 g/ha

CSc1c(C(=O)Nc2nnnn2C)ccc(C(F)F)c1C(=O)NCC(F)F [Example 1-92]
Pre-emergence action against ABUTH (herbicidal activity) (ABUTH [1]; [23]): 100%
Pre-emergence action against ABUTH (herbicidal activity in percent) (ABUTH [1]; [24]): 100%
Pre-emergence action against ALOMY (herbicidal activity) (ALOMY [2]; [23]): 90%
Pre-emergence action against AMARE in % (AMARE [3]; [25]): 100%
Pre-emergence action against AMARE in % (AMARE [3]; [23]): 100%
Pre-emergence action against ECHCG in % (ECHCG [4]): 100%
Pre-emergence action against LOLRI in % (LOLRI): 90%
Pre-emergence action against MATIN in % (MATIN [5]; dosage 20 g/ha): 100%
Pre-emergence action against MATIN in % (MATIN [5]; dosage 80 g/ha): 100%
Pre-emergence action against PHBPU in % (PHBPU [6]; dosage 80 g/ha): 90%
Pre-emergence action against SETVI in % (SETVI [7]; dosage 80 g/ha): 100%
Pre-emergence action against VERPE in % (VERPE [8]; dosage 80 g/ha): 100%
Pre-emergence action against VIOTR in % (VIOTR [9]; dosage 80 g/ha): 100%
Post-emergence action against ABUTH in % (ABUTH [10]; dosage 5 g/ha): 90%
Post-emergence action against ABUTH in % (ABUTH [10]; dosage 20 g/ha): 100%
Post-emergence action against ALOMY in % (ALOMY [11]; dosage 20 g/ha): 90%
Post-emergence action at 20 g/ha against AMARE in % (AMARE [12]): 100%
Post-emergence action at 20 g/ha against AVEFA in % (AVEFA [13]): 90%
Post-emergence action against ECHCG in % (ECHCG [14]; dosage 5 g/ha): 100%
Post-emergence action against ECHCG in % (ECHCG [14]; dosage 20 g/ha): 100%
Post-emergence action against MATIN in % (MATIN [15]; dosage 20 g/ha): 80%
Post-emergence action against PHBPU in % (PHBPU [16]; dosage 20 g/ha): 90%
Post-emergence action against SETVI in % (SETVI [17]; dosage 5 g/ha): 90%
Post-emergence action against SETVI in % (SETVI [17]; dosage 20 g/ha): 100%
Post-emergence action against VERPE in % (VERPE [18]): 90%
Post-emergence action against VIOTR in % (VIOTR [19]): 100%

CCn1nnnc1NC(=O)c1ccc(C(F)(F)F)c(C(=O)NC(C)C)c1C [Example 2-33]
pest or weed control at 80 g/ha (ABUTH [1]; Abutilon theophrasti, 504 h, 80 g/ha, scored visually after 3 weeks vs untreated controls (100% = plants have died, 0% = like control plants)): 100%
pest or weed control at 20 g/ha (ABUTH [1]; Abutilon theophrasti, 504 h, dosage 20 g/ha, scored visually after 3 weeks vs untreated controls, 100% = plants have died, 0% = like control plants, read-out: Pre-emergence action against ABUTH (herbicidal activity in percent)): 100%
pest or weed control at 80 g/ha (ALOMY [2]; Alopecurus myosuroides, 504 h, 80 g/ha, scored visually after 3 weeks vs untreated controls (100% = plants have died, 0% = like control plants)): 100%
pest or weed control at 20 g/ha (ALOMY [2]; Alopecurus myosuroides, 504 h, 20 g/ha, scored visually after 3 weeks, 100% = plants have died, 0% = like control plants): 90%
pest or weed control at 20 g/ha (AMARE [3]; Amaranthus retroflexus, 504 h, 20 g/ha, scored visually after 3 weeks vs untreated controls, 100% = plants have died, 0% = like control plants): 100%
pest or weed control at 80 g/ha (AMARE [3]; Amaranthus retroflexus, 504 h, 80 g/ha, scored visually after 3 weeks vs untreated controls, 100% = plants have died, 0% = like control plants): 100%
pest or weed control at 80 g/ha (AVEFA [20]; Avena fatua, 504 h, 80 g/ha): 90%
pest or weed control at 20 g/ha (AVEFA [20]; Avena fatua, 504 h, 20 g/ha, scored visually after 3 weeks, 100% = plants have died, 0% = like control plants): 80%
pest or weed control at 80 g/ha (ECHCG [4]; Echinochloa crus-galli, 504 h): 100%
pest or weed control at 80 g/ha (LOLRI; Lolium rigidum, 504 h): 80%
pest or weed control at 20 g/ha (MATIN [5]; [26]): 100%
pest or weed control at 80 g/ha (MATIN [5]; Tripleurospermum inodorum, 504 h, dosage 80 g/ha): 100%
pest or weed control at 20 g/ha (PHBPU [6]; [27]): 80%
pest or weed control at 80 g/ha (PHBPU [6]; Ipomoea purpurea, 504 h, dosage 80 g/ha): 80%
pest or weed control at 20 g/ha (SETVI [7]; [28]): 80%
pest or weed control at 80 g/ha (SETVI [7]; Setaria viridis, 504 h, dosage 80 g/ha): 100%
pest or weed control at 20 g/ha (VERPE [8]; Veronica persica, 504 h, dosage 20 g/ha): 80%
pest or weed control at 80 g/ha (VERPE [8]; Veronica persica, 504 h, dosage 80 g/ha): 90%
pest or weed control at 20 g/ha (VIOTR [9]; Viola tricolor, 504 h, dosage 20 g/ha): 100%
pest or weed control at 80 g/ha (VIOTR [9]; Viola tricolor, 504 h, dosage 80 g/ha): 100%
pest or weed control at 20 g/ha (DIGSA [21]; Digitaria sanguinalis, 504 h, dosage 20 g/ha): 100%
pest or weed control at 80 g/ha (DIGSA [21]; Digitaria sanguinalis, 504 h, dosage 80 g/ha): 100%
pest or weed control at 5 g/ha (ABUTH [10]; Abutilon theophrasti, 504 h, dosage 5 g/ha): 90%
pest or weed control at 20 g/ha (ABUTH [10]; Abutilon theophrasti, 504 h, dosage 20 g/ha): 90%
pest or weed control at 5 g/ha (ALOMY [11]; Alopecurus myosuroides, 504 h, dosage 5 g/ha): 90%
pest or weed control at 20 g/ha (ALOMY [11]; Alopecurus myosuroides, 504 h, dosage 20 g/ha): 100%
pest or weed control at 20 g/ha (AMARE [12]; Amaranthus retroflexus, 504 h): 100%
pest or weed control at 20 g/ha (AVEFA [13]; Avena fatua, 504 h): 100%
pest or weed control at 5 g/ha (ECHCG [14]; Echinochloa crus-galli, 504 h, dosage 5 g/ha): 90%
pest or weed control at 20 g/ha (ECHCG [14]; Echinochloa crus-galli, 504 h, dosage 20 g/ha): 100%
pest or weed control at 5 g/ha (MATIN [15]; Tripleurospermum inodorum, 504 h, dosage 5 g/ha): 90%
pest or weed control at 20 g/ha (MATIN [15]; [26]): 90%
pest or weed control at 20 g/ha (PHBPU [16]; [27]): 90%
pest or weed control at 5 g/ha (SETVI [17]; Setaria viridis, 504 h, dosage 5 g/ha): 80%
pest or weed control at 20 g/ha (SETVI [17]; [28]): 100%

CCn1nnnc1NC(=O)c1ccc(C(F)(F)F)c(C(=O)NC(C)C2CC2)c1Cl (stereo not drawn) [Example 2-135]
Pre-emergence action against ABUTH (herbicidal activity) (ABUTH [1]; [23]): 100%
Pre-emergence action against ABUTH (herbicidal activity in percent) (ABUTH [1]; [24]): 100%
Pre-emergence action against ALOMY (herbicidal activity) (ALOMY [2]; [23]): 90%
Pre-emergence action against AMARE in % (AMARE [3]; [25]): 100%
Pre-emergence action against AMARE in % (AMARE [3]; [23]): 100%
Pre-emergence action against AVEFA in % (AVEFA [20]; 80 g/ha): 90%
Pre-emergence action against ECHCG in % (ECHCG [4]): 100%
Pre-emergence action against LOLRI in % (LOLRI): 80%
Pre-emergence action against MATIN in % (MATIN [5]; dosage 20 g/ha): 90%
Pre-emergence action against MATIN in % (MATIN [5]; dosage 80 g/ha): 100%
Pre-emergence action against PHBPU in % (PHBPU [6]; dosage 80 g/ha): 80%
Pre-emergence action against SETVI in % (SETVI [7]; dosage 80 g/ha): 100%
Pre-emergence action against VERPE in % (VERPE [8]; dosage 80 g/ha): 100%
Pre-emergence action against VIOTR in % (VIOTR [9]; dosage 20 g/ha): 100%
Pre-emergence action against VIOTR in % (VIOTR [9]; dosage 80 g/ha): 100%
Pre-emergence action against DIGSA in % (DIGSA [21]; dosage 20 g/ha): 100%
Pre-emergence action against DIGSA in % (DIGSA [21]; dosage 80 g/ha): 100%
Post-emergence action against ABUTH in % (ABUTH [10]; dosage 20 g/ha): 80%
Post-emergence action at 20 g/ha against AMARE in % (AMARE [12]): 90%
Post-emergence action at 20 g/ha against AVEFA in % (AVEFA [13]): 80%
Post-emergence action against ECHCG in % (ECHCG [14]; dosage 5 g/ha): 80%
Post-emergence action against ECHCG in % (ECHCG [14]; dosage 20 g/ha): 90%
Post-emergence action against MATIN in % (MATIN [15]; dosage 5 g/ha): 90%
Post-emergence action against MATIN in % (MATIN [15]; dosage 20 g/ha): 90%
Post-emergence action against PHBPU in % (PHBPU [16]; dosage 5 g/ha): 80%
Post-emergence action against PHBPU in % (PHBPU [16]; dosage 20 g/ha): 80%
Post-emergence action against VERPE in % (VERPE [18]): 90%
Post-emergence action against VIOTR in % (VIOTR [19]): 90%
Post-emergence action against DIGSA (DIGSA [22]): 80%
